According to PubChem BioAssay (NCI):
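Values below derive from 48-hour exposures of cells grown in 96-well plates, with endpoints linearly interpolated between the two concentrations bracketing the appropriate inhibition level. TGI denotes the concentration required for complete inhibition of growth.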

Legend:
Experiment in all cases: growth of human tumour cells (NCI), 48 h
[1] = test system: A549 NSCLC
[2] = test system: COLO 205 colon
[3] = test system: HCT-15 colon
[4] = test system: HL-60(TB) leukemia
[5] = test system: MDA-N
[6] = test system: MOLT-4 leukemia
[7] = test system: PC-3 prostate
[8] = test system: SF-539 CNS
[9] = test system: SN12C renal
[10] = test system: SW-620 colon

Row | Compound | TGI [1] [µM] | TGI [2] [µM] | TGI [3] [µM] | TGI [4] [µM] | TGI [5] [µM] | TGI [6] [µM] | TGI [7] [µM] | TGI [8] [µM] | TGI [9] [µM] | TGI [10] [µM]
1 | O=[N+]([O-])c1ccc2nc(-c3ccccn3)c(-c3ccccn3)nc2c1 | > 100 | > 100 | > 100 | > 100 | > 100 | > 100 | > 100 | > 100 | > 100 | > 100
2 | Cc1cc(C)c(P2C(=C(O[Si](C(C)C)(C(C)C)C(C)C)C(C)(C)C)C2(c2ccccc2)c2ccccc2)c(C)c1 (stereo not given) | > 100 | > 100 | > 100 | > 100 | > 100 | > 100 | > 100 | > 100 | > 100 | > 100
3 | CN1CCN(c2c(Cl)cc(Cl)c3[nH]c4ccccc4c(=O)c23)CC1 | 32.9 | 25.3 | 17.1 | 4.63 | 20.7 | 9.96 | 23.3 | 15.3 | 21.5 | 21.3
4 | Cc1ccc(C(=O)O)c(CC2Cc3c(C)cccc3C2=O)c1 (stereo not given) | > 100 | > 100 | > 100 | > 100 | > 100 | > 100 | > 100 | > 100 | > 100 | > 100
5 | CCOC(=O)C(NC(=O)N(C1=NCC(C)S1)C1CCCCC1)(OC)C(F)(F)F (stereo not given) | > 100 | 50.8 | > 100 | 59.5 | > 100 | > 100 | > 100 | 93.1 | 29.3 | > 100
6 | C(=C\c1cccc(/C=C/c2ccccn2)n1)/c1ccccn1 | > 100 | > 100 | > 100 | > 100 | > 100 | > 100 | > 100 | > 100 | > 100 | > 100
7 | c1ccc(CCNCc2ccco2)nc1 | > 100 | > 100 | > 100 | > 100 | > 100 | > 100 | > 100 | > 100 | > 100 | > 100
8 | CCOC(=O)c1c(N2CCCC2)ncn(-c2ccccc2)c1=S | > 100 | > 100 | > 100 | > 100 | > 100 | > 100 | > 100 | > 100 | > 100 | > 100
9 | Cc1ccncc1.F[B-](F)(F)F.[Pt+2].c1ccc(-c2cccc(-c3ccccn3)n2)nc1 | > 75.7 | 20.8 | 38.1 | > 45.7 | > 100 | 39.1 | > 100 | 15.1 | > 100 | 42.6
10 | N=C1N(S(=O)(=O)c2ccccc2)[C@@H](Cc2ccccc2)[C@H](c2ccccc2)C1(c1ccccc1)c1ccccc1 | > 100 | > 100 | > 100 | > 100 | > 100 | > 100 | > 100 | > 100 | > 100 | > 100
11 | CCOC(=O)c1c(CN2CCNCC2)nc2ccccc2c1-c1ccccc1 | 33.1 | 35.8 | 32.8 | 30.6 | 23.3 | 25 | 27.3 | 34.8 | 28.2 | 34.9
12 | NC(=S)N/N=C\c1ccc(OCc2cccc(COc3ccc(/C=N/NC(N)=S)cc3)n2)cc1 | > 100 | > 100 | > 100 | > 100 | > 100 | > 100 | > 100 | > 100 | > 100 | > 100
13 | Clc1ccc(Cc2nc3ccccc3nc2-c2cccc(Br)c2)cc1 | 35.6 | 12 | 3.11 | 6.49 | 4.19 | 6.84 | 4.88 | 5.23 | 10.1 | 4.49
14 | COc1cc(/C=C/C(=O)c2c(=O)o[nH][n+]2-c2ccccc2)ccc1[O-] | 14.8 | 27.2 | 6.12 | 3.65 | 6.25 | 5.59 | 21.7 | 5.92 | 5.3 | 5.85
15 | CC[N+]1(C)CCC(O)(/C=C/c2ccc(OC)cc2)C(C(=O)/C=C/c2ccc(OC)cc2)C1 (stereo not given) | > 58 | 8.08 | > 55.4 | 5.03 | > 50.1 | 4.94 | 42.6 | > 45.7 | > 58.5 | 7.42
16 | Nc1ncnc2c1ncn2C1CCC(COS(N)(=O)=O)C1 (stereo not given) | > 100 | > 100 | > 100 | > 100 | > 100 | > 100 | > 100 | > 100 | > 100 | > 100
17 | COc1nc2c(c(=O)n1C)N[C@H]1[C@H](OC(C)=O)[C@@H](OC(C)=O)CO[C@H]1N2 | > 100 | > 100 | > 100 | > 100 | > 100 | > 100 | > 100 | > 100 | > 100 | > 100
18 | CC(=O)OCC1OC(n2c3c(c(-c4cccc5ccccc45)c(C#N)c2=S)CCCC3)C(OC(C)=O)C(OC(C)=O)C1OC(C)=O (stereo not given) | > 100 | > 100 | > 100 | > 100 | > 100 | > 100 | > 100 | > 100 | > 100 | > 100
19 | Cc1ccc(C(=O)N/N=C(\N=Nc2cccc(Cl)c2)c2ccc(N(CCC#N)CCC#N)cc2C)cc1 | > 100 | > 100 | > 100 | > 100 | > 100 | > 100 | > 100 | > 100 | > 100 | > 100
20 | O=C(CCN1CCCC1)Nc1ccc2sc3ccccc3c(=O)c2n1 | 17.9 | 16.3 | 16.8 | 16.3 | 20.1 | 17.7 | 22.2 | 18.1 | 21.3 | 19.9
21 | O=C1C=CC(=O)C(CNc2ccc(C(=O)OC34CC5CC(CC(C5)C3)C4)cc2)=C1 | 56.9 | 6.81 | 12.3 | > 21.6 | 19.2 | 8.34 | 22 | 8.89 | 17.8 | 27.4
22 | Cc1cc(=O)n2nc(SCc3ccccc3)sc2n1 | > 100 | > 100 | > 100 | > 100 | > 100 | > 100 | > 100 | > 100 | > 100 | > 100
23 | CCCCc1cc2c(C)cc(=O)oc2c(O)c1O | > 100 | 56.5 | > 100 | 38.4 | > 100 | > 100 | 68.1 | 47.4 | > 100 | 62.2
24 | CN(C)/N=C/c1cn(C)c(=O)n(C)c1=O | > 100 | > 100 | > 100 | > 100 | > 100 | > 100 | > 100 | > 100 | > 100 | > 100
